Source: paper PMC9986876, “Prediction of Antileishmanial Compounds: General Model, Preparation, and Evaluation of 2-Acylpyrrole Derivatives” (Journal of Chemical Information and Modeling, 2022)

Tests used:
[1] = Cytotoxicity assay on macrophages (resazurin); assay type: cell-based, BALB/c mice; conditions: mouse, J774 macrophages, values marked e correspond to 100 μg/mL, the higher dose tested
Description: The assay was carried out as previously described.[30] J774 macrophages cell lines were seeded (5 × 10^4 cells/well) in 96-well flat-bottom microplates with 100 μL of RPMI 1640 medium. The cells were allowed to attach for 24 h at 37 °C and 5% CO2, and the medium was replaced by different concentrations of the compounds in 200 μL of medium and exposed for another 24 h. Growth controls and signal-to-noise were also included. Afterward, a volume of 20 μL of 2.5 mM resazurin solution was added, and plates were returned to the incubator for another 3 h to evaluate cell viability. The reduction of resazurin was determined by fluorometry as in the promastigote assay. Each concentration was assayed three times.

L. donovani amastigotes = assay: In vitro intracellular amastigote susceptibility assay in J774 macrophages; assay type: cell-based; conditions: for IC50: Leishmania donovani, L. donovani intracellular amastigotes in J774, 48 h, N/A = not active at 100 μg/mL
Description: The following species of Leishmania were used: L. donovani (MHOM/IN/80/DD8) was purchased (ATCC, USA) and L. amazonensis (MHOM/Br/79/Maria) was kindly provided by Prof. Alfredo Toraño (Instituto de Salud Carlos III, Madrid). Promastigotes were cultured in Schneider’s insect medium supplemented with 10% heat-inactivated fetal bovine serum (FBS) and 1000 U/L of penicillin plus 100 mg/L of streptomycin in 25 mL culture flasks at 26 °C. The assay was carried out as previously described.[29] Briefly, 5 × 10^4 J774 macrophages and stationary promastigotes in a 1:5 ratio were seeded in each well of a microtiter plate, suspended in 200 μL of culture medium, and incubated for 24 h at 33 °C in a 5% CO2 chamber. After this first incubation, the temperature was increased up to 37 °C for another 24 h. Thereafter, cells were washed several times in culture medium by centrifugation at 1.500g for 5 min in order to remove free non-internalized promastigotes. Finally, the supernatant was replaced by 200 μL/well of culture medium containing 2-fold serial dilutions of the test compounds as in promastigotes assay. Growth control and signal-to-noise were also included. Following incubation for 48 h at 37 °C and 5% CO2, the culture medium was replaced by 200 μL/well of the lysis solution (RPMI-1640 with 0.048% HEPES and 0.01% SDS) and incubated at room temperature for 20 min. Thereafter, the plates were centrifuged at 3.500g for 5 min and the lysis solution was replaced by 200 μL/well of Schneider’s insect medium. The culture plates were then incubated at 26 °C for another 4 days to allow transformation of viable amastigotes into promastigotes and proliferation. Afterward, 20 μL/well of 2.5 mM resazurin was added and incubated for another 3 h. Finally, fluorescence emission was measured and IC50 was estimated as described above. All tests were carried out in triplicate. […] The IC50 and SI were calculated as in the previous section.

[2] = tested on: L. donovani (MHOM/IN/80/DD8) promastigotes; assay: In vitro promastigote susceptibility assay (resazurin); assay type: cell-based; conditions: for SI (selectivity index, SI = CC50/IC50): CC50 J774 / IC50 L. donovani promastigotes; for IC50: Leishmania donovani, L. donovani promastigotes, 48 h at 26 °C, triplicate, N/A = not active at 100 μg/mL
Description: (§1) The following species of Leishmania were used: L. donovani (MHOM/IN/80/DD8) was purchased (ATCC, USA) and L. amazonensis (MHOM/Br/79/Maria) was kindly provided by Prof. Alfredo Toraño (Instituto de Salud Carlos III, Madrid). Promastigotes were cultured in Schneider’s insect medium supplemented with 10% heat-inactivated fetal bovine serum (FBS) and 1000 U/L of penicillin plus 100 mg/L of streptomycin in 25 mL culture flasks at 26 °C. […] New samples of the compounds have been prepared according to the protocol described above, and subsequently solutions of the chemical compound to be assayed have been dissolved in DMSO at 50 mg/mL. […] Growth control and signal-to-noise control were also included. The final solvent (DMSO) concentrations never exceeded 0.5% (v/v) warranting no effect on parasite proliferation or morphology. After 48 h at 26 °C, 20 μL of a 2.5 mM resazurin solution was added to each well and the plates were returned to the incubator for another 3 h. […] Growth inhibition (%) was calculated by 100 – [(RFU treated wells – RFU signal-to-noise)/(RFU untreated – RFU signal-to-noise) × 100]. All tests were carried out in triplicate. Miltefosine (Sigma-Merck, Madrid, Spain) was used as the reference drug and was evaluated under the same conditions. […] The selectivity index (SI) was calculated as the ratio between cytotoxicity (CC50) and activity against parasites (IC50).

[3] = tested on: L. amazonensis (MHOM/Br/79/Maria) promastigotes; assay: as above; assay type: cell-based; conditions: for SI (selectivity index, SI = CC50/IC50): CC50 J774 / IC50 L. amazonensis promastigotes; for IC50: Leishmania amazonensis, L. amazonensis promastigotes, 48 h at 26 °C, triplicate, N/A = not active at 100 μg/mL
Description: as §1

[4] = tested on: L. amazonensis amastigotes; assay: In vitro intracellular amastigote susceptibility assay in J774 macrophages; assay type: cell-based; conditions: for IC50: Leishmania amazonensis, L. amazonensis intracellular amastigotes in J774, 48 h, N/A = not active at 100 μg/mL
Description: The following species of Leishmania were used: L. donovani (MHOM/IN/80/DD8) was purchased (ATCC, USA) and L. amazonensis (MHOM/Br/79/Maria) was kindly provided by Prof. Alfredo Toraño (Instituto de Salud Carlos III, Madrid). Promastigotes were cultured in Schneider’s insect medium supplemented with 10% heat-inactivated fetal bovine serum (FBS) and 1000 U/L of penicillin plus 100 mg/L of streptomycin in 25 mL culture flasks at 26 °C. The assay was carried out as previously described.[29] Briefly, 5 × 10^4 J774 macrophages and stationary promastigotes in a 1:5 ratio were seeded in each well of a microtiter plate, suspended in 200 μL of culture medium, and incubated for 24 h at 33 °C in a 5% CO2 chamber. After this first incubation, the temperature was increased up to 37 °C for another 24 h. Thereafter, cells were washed several times in culture medium by centrifugation at 1.500g for 5 min in order to remove free non-internalized promastigotes. Finally, the supernatant was replaced by 200 μL/well of culture medium containing 2-fold serial dilutions of the test compounds as in promastigotes assay. Growth control and signal-to-noise were also included. Following incubation for 48 h at 37 °C and 5% CO2, the culture medium was replaced by 200 μL/well of the lysis solution (RPMI-1640 with 0.048% HEPES and 0.01% SDS) and incubated at room temperature for 20 min. Thereafter, the plates were centrifuged at 3.500g for 5 min and the lysis solution was replaced by 200 μL/well of Schneider’s insect medium. The culture plates were then incubated at 26 °C for another 4 days to allow transformation of viable amastigotes into promastigotes and proliferation. Afterward, 20 μL/well of 2.5 mM resazurin was added and incubated for another 3 h. Finally, fluorescence emission was measured and IC50 was estimated as described above. All tests were carried out in triplicate. Miltefosine (Sigma-Merck, Madrid, Spain) was used as the reference drug and was evaluated under the same conditions. The IC50 and SI were calculated as in the previous section.

[5] = target: Leishmania donovani Promastigotes; set-up: method as in J. Med. Chem., ( 1991), 34, 9, 2798; conditions: ChEMBL dataset, some flagged Outside typical range, ref J. Med. Chem., ( 1991), 34, 9, 2798, read-out: vij, Ki; cited from earlier work
[6] = macrophages J774, 24 h exposure, Table 2
[7] = macrophages J774, Table 3 (amastigote assay table)

IC50 (L. donovani amastigotes)	IC50 [2] [µM]	IC50 [3] [µM]	IC50 [4] [µM]	SMILES	CC50 at 24 h [1, 6] [µM]	CC50 at 24 h [1, 7] [µM]	SI (selectivity index, SI = CC50/IC50) (L. donovani amastigotes; CC50 J774 / IC50 L. donovani amastigotes)	SI (selectivity index, SI = CC50/IC50) [2]	SI (selectivity index, SI = CC50/IC50) [3]	SI (selectivity index, SI = CC50/IC50) ([4]; CC50 J774 / IC50 L. amazonensis amastigotes)	Ki [5] [µM]
211 ± 30.3 µM	118 ± 25.8	67.2 ± 4.94	153 ± 9.11	O=C(c1ccc(Br)cc1)c1cccn1-c1ncccn1 [5af]	> 305	> 305	>1.45	>2.58	>4.54	>1.99	
> 100 µg/mL	221 ± 36.9	30.9 ± 3.11	60.6 ± 7.88	Cc1cccnc1-n1cccc1C(=O)c1ccc(C(C)(C)C)cc1 [5bc]	> 314	> 314		>1.42	>10.17		
				C=CCCCC(N)C[C@H]1OC(n2cnc3c(N)ncnc32)[C@H](O)[C@@H]1O (stereo partly drawn) [CHEMBL607696]							877
				Nc1ncnc2c1ncn2C1O[C@H](C[C@@H](N)CC[C@@H](N)C(=O)O)[C@@H](O)[C@H]1O (stereo partly drawn) [CHEMBL608870]							49
				NCCC(CN)C[C@H]1OC(n2cnc3c(N)ncnc32)[C@H](O)[C@@H]1O (stereo partly drawn) [CHEMBL611866]							1120
